Data on 2 compounds can be found in patent publication US20240326041A1, “MICROFLUIDIC INDUCTION OF RESEARCH BASED NEURAL INJURY” (Worcester Polytechnic Institute, priority 2023, published 2024).

Assay [1] concerns C. elegans. The assay is described as follows: Recovery of neural activity (AWA calcium imaging) after sonication-induced injury. It counts as in vivo. The note with it: wild-type C. elegans, NAC-induced recovery. As for the experimental part: FIGS. 8A-8C show results of test substances for treatment of an injury induced by the microfluidic device of FIGS. 1-4. Referring to FIGS. 8A-8C, one approach to therapeutic and/or prophylactic neural treatment includes two chemical agents that are diluted to physiological concentrations and administered in liquid form to the test animals using their food. Drug compositions are applied for a series of several hours to allow the biological function of the composition to manifest. Animals are removed from drug administration and allowed to immobilize under anesthetic for a period of ˜60 minutes in a microfluidic device before being injured. […] The described action of the drug composition is to inhibit the ability of calcium influx channels to operate for a period of time before and during the injury, allowing later recovery of the neuron response when the action of the drug composition ceases.

For assay [2], the system named is C. elegans. Description: Behavioral state after sonication-induced traumatic injury in microfluidic device. The settings on record: 2 hour pre-exposure to 1 mM NAC; initial behavioral data. It counts as in vivo.
Protocol: To injure animals, a continuous flow of buffer fluid is pumped through a microfluidic device 120 having serpentine microchannels in a bath sonicator-induced cavitation field. Animals are trapped in the flow and directed through the cavitation field. Exposure time is determined by channel length and flow velocity. […] Animals are recovered on an agar plate 130 for further transfer and analysis using widefield or high-resolution microscopy, or encapsulated in hydrogel and assessed over time in presence of various pharmacological agents. […] A batch of test subjects is isolated and introduced via the buffer fluid 114 and suitable coupling 116, as depicted at step 404. The microfluidic device 120 including the post array 140 receives the test subjects 152-N, as shown at step 406. Computer-controlled bath sonication induces titratable cavitation conditions within a microfluidic post-array 140. […] Upon removal, animals may be assessed visually for behavioral state according to the following definitions: • Paralysis: movement phenotype characterized by no obvious gross bodily movement. • Twitch: movement phenotype characterized by shaking or convulsions of the body or a substantial part of the main body of the animal.
The target of another assay is rTRPV4 (Rattus norvegicus, UniProt Q9ERZ8). The note with it: commercially available TRPV4 antagonist, vendor description; cited from earlier work.
rTRPV4, sequence (Q9ERZ8 whole entry): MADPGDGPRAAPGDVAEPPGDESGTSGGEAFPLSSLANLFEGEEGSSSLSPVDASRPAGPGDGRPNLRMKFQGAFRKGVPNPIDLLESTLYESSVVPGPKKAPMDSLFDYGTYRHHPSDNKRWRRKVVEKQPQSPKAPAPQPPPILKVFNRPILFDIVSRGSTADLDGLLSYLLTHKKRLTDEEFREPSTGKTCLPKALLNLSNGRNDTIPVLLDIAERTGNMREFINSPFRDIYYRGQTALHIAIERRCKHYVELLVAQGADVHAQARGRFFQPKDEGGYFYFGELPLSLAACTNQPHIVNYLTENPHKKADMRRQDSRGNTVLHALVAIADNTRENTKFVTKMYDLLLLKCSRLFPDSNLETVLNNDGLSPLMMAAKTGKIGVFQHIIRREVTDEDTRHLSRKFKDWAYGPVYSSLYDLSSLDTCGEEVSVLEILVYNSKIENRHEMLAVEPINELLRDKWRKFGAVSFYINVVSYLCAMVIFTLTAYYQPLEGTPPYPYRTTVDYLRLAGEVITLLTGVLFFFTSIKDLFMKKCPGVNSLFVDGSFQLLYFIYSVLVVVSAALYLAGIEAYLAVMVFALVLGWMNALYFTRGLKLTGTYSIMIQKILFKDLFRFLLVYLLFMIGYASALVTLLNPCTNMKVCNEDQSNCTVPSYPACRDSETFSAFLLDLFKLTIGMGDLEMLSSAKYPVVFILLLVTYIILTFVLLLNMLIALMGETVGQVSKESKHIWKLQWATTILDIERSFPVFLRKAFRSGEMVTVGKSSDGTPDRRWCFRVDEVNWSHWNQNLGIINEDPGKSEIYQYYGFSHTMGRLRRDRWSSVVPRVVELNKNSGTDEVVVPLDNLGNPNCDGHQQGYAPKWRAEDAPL
The next assay has as its target hTRPV4 (Homo sapiens, UniProt Q9HBA0). The note with it: commercially available TRPV4 antagonist, vendor description; cited from earlier work.

For orientation: IC50 means the concentration that gives 50% inhibition.

hTRPV4, sequence (Q9HBA0 whole entry): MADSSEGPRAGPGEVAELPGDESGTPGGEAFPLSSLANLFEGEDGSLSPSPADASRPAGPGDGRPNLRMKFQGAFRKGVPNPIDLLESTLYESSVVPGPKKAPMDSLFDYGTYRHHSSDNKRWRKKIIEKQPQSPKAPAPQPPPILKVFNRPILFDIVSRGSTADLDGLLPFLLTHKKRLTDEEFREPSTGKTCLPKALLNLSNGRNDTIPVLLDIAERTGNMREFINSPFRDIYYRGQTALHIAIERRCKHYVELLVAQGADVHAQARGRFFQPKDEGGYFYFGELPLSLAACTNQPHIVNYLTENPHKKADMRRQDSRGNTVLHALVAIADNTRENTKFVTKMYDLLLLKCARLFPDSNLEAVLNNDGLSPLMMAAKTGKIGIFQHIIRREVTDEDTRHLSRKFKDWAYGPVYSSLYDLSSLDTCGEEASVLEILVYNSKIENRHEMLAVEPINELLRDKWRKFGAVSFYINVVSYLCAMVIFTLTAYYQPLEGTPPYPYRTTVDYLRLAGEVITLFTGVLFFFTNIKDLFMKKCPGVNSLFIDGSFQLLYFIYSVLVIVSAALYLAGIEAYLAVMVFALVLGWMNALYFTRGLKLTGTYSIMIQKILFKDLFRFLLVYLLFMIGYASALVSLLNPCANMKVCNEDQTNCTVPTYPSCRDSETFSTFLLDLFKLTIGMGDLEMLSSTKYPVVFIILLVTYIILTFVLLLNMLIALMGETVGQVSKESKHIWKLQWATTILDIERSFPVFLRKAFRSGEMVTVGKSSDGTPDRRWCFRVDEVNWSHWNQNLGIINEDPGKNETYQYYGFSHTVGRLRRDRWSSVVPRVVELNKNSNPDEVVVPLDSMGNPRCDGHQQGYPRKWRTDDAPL

For `CC(=O)N[C@@H](CS)C(=O)O` [NAC, N-acetyl-L-cysteine], in the assay with C. elegans [1], the “calcium transients on recovery after injury” value is “produces calcium transients similar to ‘osm’ mutants”. Also, the “behavioral vulnerability after injury” value in the assay with C. elegans [2] is recorded as “lessens behavioral vulnerability”.
On to `O=C(NC1(c2ccccc2)CC1)c1c(CN2CCC(N3CCCCC3)CC2)c(-c2cccc(C(F)(F)F)c2)nc2cc(Br)ccc12` [GSK2193874], for which the IC50 was 2 nM on rTRPV4 and 40 nM at hTRPV4.
